Measurements from patent US12077503B2, “Substituted cyclic amides and their use as herbicides” (FMC CORPORATION, priority 2015, dated 2024).

Experiments:
Format in all cases: in vivo
[1] = system: velvetleaf (Abutilon theophrasti); test: Test G Post-Emergence Protocol; conditions: Abutilon theophrasti, post-emergence, 312 h; for pest or weed control at 15.625 g/ha: 15.625 g ai/ha, evaluated after 13 days (100=total damage to plant; 0=no damage to plant), read-out: Velvetleaf damage rating; for pest or weed control at 62.5 g/ha: 62.5 g ai/ha, read-out: Velvetleaf damage rating (100=total damage to plant; 0=no damage to plant); for pest or weed control at 62.5 g/ha / pest or weed control at 250 g/ha: evaluated after 13 days; for pest or weed control at 250 g/ha: 250 g ai/ha, read-out: damage to plant, Velvetleaf (100=total damage to plant; 0=no damage to plant)
Summary of the method: (§1)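 Eight days post-sowing, plants received a spray of test compound (acetone/water 50:50, 0.5% Tween 20) at 15.625, 62.5 or 250 g/ha. Glasshouse regime thereafter: 24/16 °C, 14 h light, 65% humidity. Assessment after 13 days on a 0–100 damage scale.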

corn (Zea mays) [2] = test: Test G Post-Emergence Protocol; conditions: Zea mays, post-emergence, 312 h; for plant injury at 15.625 g/ha: 15.625 g ai/ha, evaluated after 13 days (100=total damage to plant; 0=no damage to plant), read-out: Corn damage rating; for plant injury at 62.5 g/ha: 62.5 g ai/ha, read-out: Corn damage rating (100=total damage to plant; 0=no damage to plant); for plant injury at 62.5 g/ha / plant injury at 250 g/ha: evaluated after 13 days; for plant injury at 250 g/ha: 250 g ai/ha, read-out: damage to plant, Corn (100=total damage to plant; 0=no damage to plant)
Summary of the method: as §1

[3] = system: redroot pigweed (Amaranthus retroflexus); test: Test G Post-Emergence Protocol; conditions: Amaranthus retroflexus, post-emergence, 312 h; for pest or weed control at 15.625 g/ha: 15.625 g ai/ha, evaluated after 13 days (100=total damage to plant; 0=no damage to plant), read-out: Pigweed, Redroot damage rating; for pest or weed control at 62.5 g/ha: 62.5 g ai/ha, read-out: Pigweed, Redroot damage rating (100=total damage to plant; 0=no damage to plant); for pest or weed control at 62.5 g/ha / pest or weed control at 250 g/ha: evaluated after 13 days; for pest or weed control at 250 g/ha: 250 g ai/ha, read-out: damage to plant, Pigweed, Redroot (100=total damage to plant; 0=no damage to plant)
Summary of the method: as §1

[4] = system: ivy-leaved morning glory (Ipomoea hederacea); test: Test G Post-Emergence Protocol; conditions: Ipomoea, post-emergence, 312 h; for pest or weed control at 15.625 g/ha: 15.625 g ai/ha, evaluated after 13 days (100=total damage to plant; 0=no damage to plant), read-out: Morningglory, Ivy-leaved damage rating; for pest or weed control at 62.5 g/ha: 62.5 g ai/ha, read-out: Morningglory, Ivy-leaved damage rating (100=total damage to plant; 0=no damage to plant); for pest or weed control at 62.5 g/ha / pest or weed control at 250 g/ha: evaluated after 13 days; for pest or weed control at 250 g/ha: 250 g ai/ha, read-out: damage to plant, Morningglory, Ivy-leaved (100=total damage to plant; 0=no damage to plant)
Summary of the method: as §1

[5] = system: giant foxtail (Setaria faberi); test: Test G Post-Emergence Protocol; conditions: Setaria faberi, post-emergence, 312 h; for pest or weed control at 15.625 g/ha: 15.625 g ai/ha, evaluated after 13 days (100=total damage to plant; 0=no damage to plant), read-out: Foxtail, Giant damage rating; for pest or weed control at 62.5 g/ha: 62.5 g ai/ha, read-out: Foxtail, Giant damage rating (100=total damage to plant; 0=no damage to plant); for pest or weed control at 62.5 g/ha / pest or weed control at 250 g/ha: evaluated after 13 days; for pest or weed control at 250 g/ha: 250 g ai/ha, read-out: damage to plant, Foxtail, Giant (100=total damage to plant; 0=no damage to plant)
Summary of the method: as §1

[6] = system: barnyardgrass (Echinochloa crus-galli); test: Test G Post-Emergence Protocol; conditions: Echinochloa crus-galli, post-emergence, 312 h; for pest or weed control at 15.625 g/ha: 15.625 g ai/ha, evaluated after 13 days (100=total damage to plant; 0=no damage to plant), read-out: Barnyardgrass damage rating; for pest or weed control at 62.5 g/ha: 62.5 g ai/ha, read-out: Barnyardgrass damage rating (100=total damage to plant; 0=no damage to plant); for pest or weed control at 62.5 g/ha / pest or weed control at 250 g/ha: evaluated after 13 days; for pest or weed control at 250 g/ha: 250 g ai/ha, read-out: damage to plant, Barnyardgrass (100=total damage to plant; 0=no damage to plant)
Summary of the method: as §1

[7] = system: velvetleaf (Abutilon theophrasti); test: Test G Pre-Emergence Protocol; conditions: Abutilon theophrasti, pre-emergence, 312 h, evaluated after 13 days; for pest or weed control at 15.625 g/ha: 15.625 g ai/ha; for pest or weed control at 15.625 g/ha / pest or weed control at 250 g/ha: read-out: Velvetleaf damage rating (100=total damage to plant; 0=no damage to plant); for pest or weed control at 62.5 g/ha: 62.5 g ai/ha, 100=total damage to plant, 0=no damage to plant, read-out: plant damage rating, Velvetleaf; for pest or weed control at 250 g/ha: 250 g ai/ha
Summary of the method: (§2)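 Test compound in 0.5% Tween 20 acetone/water (50:50) was applied at three rates (15.625, 62.5, 250 g/ha) to soil sown one day earlier. After 13 days plants were scored for injury, where 0 means unaffected and 100 means completely damaged.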

corn (Zea mays) [8] = test: Test G Pre-Emergence Protocol; conditions: Zea mays, pre-emergence, 312 h, evaluated after 13 days; for plant injury at 15.625 g/ha: 15.625 g ai/ha; for plant injury at 15.625 g/ha / plant injury at 250 g/ha: read-out: Corn damage rating (100=total damage to plant; 0=no damage to plant); for plant injury at 62.5 g/ha: 62.5 g ai/ha, 100=total damage to plant, 0=no damage to plant, read-out: plant damage rating, Corn; for plant injury at 250 g/ha: 250 g ai/ha
Summary of the method: as §2

[9] = system: redroot pigweed (Amaranthus retroflexus); test: Test G Pre-Emergence Protocol; conditions: Amaranthus retroflexus, pre-emergence, 312 h, evaluated after 13 days; for pest or weed control at 15.625 g/ha: 15.625 g ai/ha; for pest or weed control at 15.625 g/ha / pest or weed control at 250 g/ha: read-out: Pigweed, Redroot damage rating (100=total damage to plant; 0=no damage to plant); for pest or weed control at 62.5 g/ha: 62.5 g ai/ha, 100=total damage to plant, 0=no damage to plant, read-out: plant damage rating, Pigweed, Redroot; for pest or weed control at 250 g/ha: 250 g ai/ha
Summary of the method: as §2

[10] = system: ivy-leaved morning glory (Ipomoea hederacea); test: Test G Pre-Emergence Protocol; conditions: Ipomoea, pre-emergence, 312 h, evaluated after 13 days; for pest or weed control at 15.625 g/ha: 15.625 g ai/ha, read-out: Morning-glory, Ivy-leaved damage rating (100=total damage to plant; 0=no damage to plant); for pest or weed control at 62.5 g/ha: 62.5 g ai/ha, 100=total damage to plant, 0=no damage to plant, read-out: plant damage rating, Morningglory, Ivy-leaved; for pest or weed control at 250 g/ha: 250 g ai/ha, read-out: Morningglory, Ivy-leaved damage rating (100=total damage to plant; 0=no damage to plant)
Summary of the method: as §2

[11] = system: giant foxtail (Setaria faberi); test: Test G Pre-Emergence Protocol; conditions: Setaria faberi, pre-emergence, 312 h, evaluated after 13 days; for pest or weed control at 15.625 g/ha: 15.625 g ai/ha; for pest or weed control at 15.625 g/ha / pest or weed control at 250 g/ha: read-out: Foxtail, Giant damage rating (100=total damage to plant; 0=no damage to plant); for pest or weed control at 62.5 g/ha: 62.5 g ai/ha, 100=total damage to plant, 0=no damage to plant, read-out: plant damage rating, Foxtail, Giant; for pest or weed control at 250 g/ha: 250 g ai/ha
Summary of the method: as §2

[12] = system: barnyardgrass (Echinochloa crus-galli); test: Test G Pre-Emergence Protocol; conditions: Echinochloa crus-galli, pre-emergence, 312 h, evaluated after 13 days; for pest or weed control at 15.625 g/ha: 15.625 g ai/ha, read-out: Barnyard grass damage rating (100=total damage to plant; 0=no damage to plant); for pest or weed control at 62.5 g/ha: 62.5 g ai/ha, 100=total damage to plant, 0=no damage to plant, read-out: plant damage rating, Barnyardgrass; for pest or weed control at 250 g/ha: 250 g ai/ha, read-out: Barnyardgrass damage rating (100=total damage to plant; 0=no damage to plant)
Summary of the method: as §2

Row | Structure (SMILES) | pest or weed control at 15.625 g/ha [1] [%] | pest or weed control at 62.5 g/ha [1] [%] | pest or weed control at 250 g/ha [1] [%] | plant injury at 15.625 g/ha (corn (Zea mays) [2]) [%] | plant injury at 62.5 g/ha (corn (Zea mays) [2]) [%] | plant injury at 250 g/ha (corn (Zea mays) [2]) [%] | pest or weed control at 15.625 g/ha [3] [%] | pest or weed control at 62.5 g/ha [3] [%] | pest or weed control at 250 g/ha [3] [%] | pest or weed control at 15.625 g/ha [4] [%] | pest or weed control at 62.5 g/ha [4] [%] | pest or weed control at 250 g/ha [4] [%] | pest or weed control at 15.625 g/ha [5] [%] | pest or weed control at 62.5 g/ha [5] [%] | pest or weed control at 250 g/ha [5] [%] | pest or weed control at 15.625 g/ha [6] [%] | pest or weed control at 62.5 g/ha [6] [%] | pest or weed control at 250 g/ha [6] [%] | pest or weed control at 15.625 g/ha [7] [%] | pest or weed control at 62.5 g/ha [7] [%] | also measured
1 | C=CCc1c(Cl)cccc1NC(=O)[C@H]1C(=O)N(C)C[C@@H]1c1ccc(C(F)(F)F)cc1 (racemic) [Compound 1440] | 0 | 0 | 0 | 0 | 10 | 20 | 0 | 10 | 20 | 0 | 0 | 10 | 0 | 20 | 60 | 0 | 0 | 10 | 0 | 0 | pest or weed control at 250 g/ha [7]: 0%; plant injury at 15.625 g/ha (corn (Zea mays) [8]): 0%; plant injury at 62.5 g/ha (corn (Zea mays) [8]): 0%; plant injury at 250 g/ha (corn (Zea mays) [8]): 0%; pest or weed control at 15.625 g/ha [9]: 0%; pest or weed control at 62.5 g/ha [9]: 0%; pest or weed control at 250 g/ha [9]: 0%; pest or weed control at 15.625 g/ha [10]: 0%; pest or weed control at 62.5 g/ha [10]: 0%; pest or weed control at 250 g/ha [10]: 0%; pest or weed control at 15.625 g/ha [11]: 0%; pest or weed control at 62.5 g/ha [11]: 50%; pest or weed control at 250 g/ha [11]: 80%; pest or weed control at 15.625 g/ha [12]: 0%; pest or weed control at 62.5 g/ha [12]: 10%; pest or weed control at 250 g/ha [12]: 40%
2 | CCc1nnc(NC(=O)[C@@H]2C(=O)N(C)C[C@H]2c2ccc(C(F)(F)F)cc2)s1 (racemic) [Compound 1558] | 0 | 0 | 0 | 0 | 0 | 0 | 0 | 0 | 0 | 0 | 0 | 0 | 0 | 0 | 0 | 0 | 10 | 20 | 0 | 0 | pest or weed control at 250 g/ha [7]: 0%; plant injury at 15.625 g/ha (corn (Zea mays) [8]): 0%; plant injury at 62.5 g/ha (corn (Zea mays) [8]): 0%; plant injury at 250 g/ha (corn (Zea mays) [8]): 0%; pest or weed control at 15.625 g/ha [9]: 0%; pest or weed control at 62.5 g/ha [9]: 0%; pest or weed control at 250 g/ha [9]: 10%; pest or weed control at 15.625 g/ha [10]: 0%; pest or weed control at 62.5 g/ha [10]: 0%; pest or weed control at 250 g/ha [10]: 0%; pest or weed control at 15.625 g/ha [11]: 0%; pest or weed control at 62.5 g/ha [11]: 0%; pest or weed control at 250 g/ha [11]: 0%; pest or weed control at 15.625 g/ha [12]: 0%; pest or weed control at 62.5 g/ha [12]: 0%; pest or weed control at 250 g/ha [12]: 10%
